In data set [1] the target is T1, Kir3.1/Kir3.2 (Homo sapiens) (UniProt P48549+P48051). The data set is described as follows: Activation of human GIRK1/2 expressed in HEK293 cells co-expressing rat mGlu8 by thallium flux assay relative to control. The data set is classed as cell-based.
Data set [2] deals with Kir3.1/Kir3.4 (Homo sapiens) (UniProt P48549+P48544). Put plainly: Activation of human GIRK1/4 expressed in HEK293 cells co-expressing rat mGlu8 by thallium flux assay relative to control. Type of data set: cell-based.
The target of data set [3] is T2, Kir3.1/Kir3.2 (Homo sapiens, UniProt P48549+P48051).
T2 sequence (P48549 whole entry): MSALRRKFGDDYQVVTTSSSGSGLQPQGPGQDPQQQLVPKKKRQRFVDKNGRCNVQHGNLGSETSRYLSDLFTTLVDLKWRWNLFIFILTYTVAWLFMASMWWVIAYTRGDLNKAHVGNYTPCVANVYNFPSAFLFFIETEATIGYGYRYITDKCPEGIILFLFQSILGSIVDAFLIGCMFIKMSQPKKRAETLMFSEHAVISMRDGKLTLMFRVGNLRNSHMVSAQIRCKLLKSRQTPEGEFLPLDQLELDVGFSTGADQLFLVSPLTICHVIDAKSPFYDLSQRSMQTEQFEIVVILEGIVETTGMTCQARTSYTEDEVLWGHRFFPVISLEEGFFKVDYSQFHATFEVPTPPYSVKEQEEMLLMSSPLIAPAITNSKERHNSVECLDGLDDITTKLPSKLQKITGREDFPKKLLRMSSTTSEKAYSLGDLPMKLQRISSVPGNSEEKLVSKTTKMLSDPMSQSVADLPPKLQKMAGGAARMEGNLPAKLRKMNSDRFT
T2 sequence (P48051 whole entry): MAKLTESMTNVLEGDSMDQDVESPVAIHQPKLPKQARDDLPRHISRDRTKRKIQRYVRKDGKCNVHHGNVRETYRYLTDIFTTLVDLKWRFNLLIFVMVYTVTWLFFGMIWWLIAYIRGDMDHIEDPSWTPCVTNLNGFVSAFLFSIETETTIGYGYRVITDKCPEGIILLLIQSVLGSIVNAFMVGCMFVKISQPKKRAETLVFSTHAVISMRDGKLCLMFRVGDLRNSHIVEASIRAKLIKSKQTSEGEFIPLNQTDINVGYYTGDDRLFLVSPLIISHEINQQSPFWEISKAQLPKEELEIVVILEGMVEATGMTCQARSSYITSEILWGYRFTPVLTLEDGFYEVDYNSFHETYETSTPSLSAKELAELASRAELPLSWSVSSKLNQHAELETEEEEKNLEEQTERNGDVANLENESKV
Put plainly: (§1) Activation of human GIRK1/2 expressed in HEK293 cells co-expressing rat mGlu8 by thallium flux assay. Type of data set: cell-based. The conditions noted are these: hek293.

Data set [4] concerns the target T3, Kir3.1/Kir3.4 (Homo sapiens, UniProt P48549+P48544).
T3 sequence (P48549 whole entry): T2 sequence (P48549 whole entry)
T3 sequence (P48544 whole entry): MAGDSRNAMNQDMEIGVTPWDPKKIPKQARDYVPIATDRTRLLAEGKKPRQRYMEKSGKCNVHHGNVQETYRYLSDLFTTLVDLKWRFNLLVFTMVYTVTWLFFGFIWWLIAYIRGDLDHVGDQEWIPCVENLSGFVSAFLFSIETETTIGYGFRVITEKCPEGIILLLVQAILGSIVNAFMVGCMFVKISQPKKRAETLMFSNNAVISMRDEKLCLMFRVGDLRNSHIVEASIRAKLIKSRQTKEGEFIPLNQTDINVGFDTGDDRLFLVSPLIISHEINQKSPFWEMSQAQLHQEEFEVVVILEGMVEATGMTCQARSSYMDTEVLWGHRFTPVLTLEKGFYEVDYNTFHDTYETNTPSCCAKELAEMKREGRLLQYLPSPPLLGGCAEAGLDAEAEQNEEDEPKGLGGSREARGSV
Put plainly: (§2) Activation of human GIRK1/4 expressed in HEK293 cells co-expressing rat mGlu8 by thallium flux assay. The conditions noted are these: hek293. The data set is classed as cell-based.

Data set [5] deals with T4, Kir3.1/Kir3.2 (Homo sapiens, UniProt P48051+P48549).
T4 sequence (P48549 whole entry): T2 sequence (P48549 whole entry)
T4 sequence (P48051 whole entry): T2 sequence (P48051 whole entry)
Described as §1. Type of data set: cell-based.

Data set [6] concerns the target T5, Kir3.1/Kir3.4 (Homo sapiens, UniProt P48544+P48549).
T5 sequence (P48549 whole entry): T2 sequence (P48549 whole entry)
T5 sequence (P48544 whole entry): T3 sequence (P48544 whole entry)
The description is as §2. The data set is classed as cell-based.

Data set [7] can be described thus: Stability in mouse plasma. The data set is classed as ADME, cell-free.
Data set [8] can be described thus: Fraction unbound in human plasma. The data set is classed as ADME, cell-free.
The nature of data set [9]: Clearance in mouse liver microsomes. (Liver microsomes are vesicles of endoplasmic reticulum, rich in cytochrome P450 enzymes.)
Data set [10] in a line: Clearance in human liver microsomes.
The species named for a further data set is Homo sapiens. The data set is described as follows: Ratio of EC50 for activation of human GIRK1/4 expressed in HEK293 cells co-expressing rat mGlu8 by thallium flux assay to EC50 for Activation of human GIRK1/2 expressed in HEK293 cells co-expressing rat mGlu8 by thallium flux assay. Type of data set: cell-based.
For data set [11], the target named is T1, Kir3.1/Kir3.2 (Homo sapiens). The description is as §1. Type of data set: cell-based.
Data set [12] is described as follows: Extraction ratio in human liver S9 fraction. Type of data set: ADME, subcellular. To be noted: read-out: ERH.
Data set [13] in a line: Half life in human liver S9 fraction. Type of data set: ADME, subcellular.

SMILES strings stand for the structures. Active and inactive are the calls of the source. The rule behind the calls is not given here.

As usually defined, the Emax is the size of the effect at its maximum, as opposed to the concentration needed. As usually defined, the EC50 is the concentration giving half of the maximal effect. Read a high EC50 as a less potent agent.

Consider `O=C(Cn1nnc(-c2ccccc2)n1)Nc1ccccn1`, for which the Emax result in data set [1] and in data set [2] was “inactive” throughout. The 50% effective concentration (EC50) result at Kir3.1/Kir3.2 [3] and at Kir3.1/Kir3.4 [4] was “Not Active” in each case.

Regarding `Cc1cc(NC(=O)Cn2nnc(-c3ccccc3)n2)n(C2CCCCC2)n1`, the maximal response (Emax) in [1] turned out to be 92%; in [2] it was 63%. In addition, the EC50 on Kir3.1/Kir3.2 [5] was found to be 96 nM; at Kir3.1/Kir3.4 [6], 259 nM. In addition, the Stability entry in data set [7] was “Unstable”. In addition, the Fu in data set [8] is on record as 1.1%. Further, the figures for the CLhep predicted in data set [9] and in data set [10] were 87 mL/min/kg and 18.9 mL/min/kg, respectively. For the same molecule, the Ratio EC50 in the data set filed under Homo sapiens came out at 3.

For `Cc1cc(N(C)C(=O)Cn2nnc(-c3ccccc3)n2)n(C2CCCCC2)n1`, in [11], the result was inactive.

In the case of `Cc1nc(NC(=O)Cn2nnc(-c3ccccc3)n2)n(-c2ccccc2)n1`, the Emax entry in data set [1] and in data set [2] was “inactive” throughout. Moreover, the EC50 result on Kir3.1/Kir3.2 [3] and at Kir3.1/Kir3.4 [4] was “Not Active” throughout.

For the molecule `Cc1cc(NC(=O)Cn2nnc(-c3ccc(Cl)c(Cl)c3)n2)n(C2CCCCC2)n1`, the Emax in [1] was 84%; in data set [2] it was 70%. Further, the results for the concentration giving a half-maximal response (EC50) on Kir3.1/Kir3.2 [5] and on Kir3.1/Kir3.4 [6] were 1220 nM and 2200 nM, respectively. Moreover, the Stability result in data set [7] was “Unstable”. For the same molecule, in data set [8], the Fu was < 0.3%. Moreover, the CLhep predicted is 76 mL/min/kg in data set [9] and 17.4 mL/min/kg in data set [10]. Also, the Ratio EC50 in the data set filed under Homo sapiens is 3 to 5.

As for `O=C(Cn1nnc(-c2ccccc2)n1)Nc1cc(C2(C(F)(F)F)CC2)nn1C1CCCCC1`, the Emax result in data set [1] and in [2] was “inactive” throughout. Moreover, the 50% effective concentration (EC50) entry on Kir3.1/Kir3.2 [3] and at Kir3.1/Kir3.4 [4] was “Not Active” throughout.

Turning to `Cc1nc(-c2ccccc2)c(NC(=O)Cn2nnc(-c3ccccc3)n2)s1`, the Emax entry in data set [1] and in [2] was “inactive” in each case. In addition, the EC50 result on Kir3.1/Kir3.2 [3] and on Kir3.1/Kir3.4 [4] was “Not Active” each time.

With `Cc1cc(NC(=O)Cn2nnc(-c3ccccc3)n2)n(C2CCS(=O)(=O)C2)n1` (stereo not drawn), in data set [12], the hepatic extraction ratio was < 0.05. The values for the Emax in data set [1] and in [2] were 93% and 75%, respectively. In addition, the half-maximal effective concentration (EC50) turned out to be 1030 nM on Kir3.1/Kir3.2 [5] and 2170 nM on Kir3.1/Kir3.4 [6]. The molecule also showed a t1/2 in data set [13] of 10.79 h. Moreover, the Stability entry in data set [7] is reported as “Unstable”. Besides, in data set [8], the Fu is recorded as 3.7%.

Values taken from ChEMBL document CHEMBL4422673, “Discovery, synthesis and characterization of a series of (1-alkyl-3-methyl-1H-pyrazol-5-yl)-2-(5-aryl-2H-tetrazol-2-yl)acetamides as novel GIRK1/2 potassium channel activators” (Bioorg Med Chem Lett, 2019).
